Measurements published in US8263611B2, “Hydrochloride salt of an azabicyclo[3.2.1]octane derivative” (Neurosearch A/S, priority 2007, dated 2012).
Where a name gives a salt, the structure may show the parent alone.

Experiment: solubility by stirred slurry, salt concentration in solution by HPLC
Format: physicochemical
Details: 25 °C, thermodynamic from solid, after 8 days stirring at 25 degC, slurry in "a volume of solvent" (solvent not named)
Procedure: The solubility of a sample of the hydrochloride salt of the invention was determined by adding an amount of it to a volume of solvent with stirring so as to form a slurry. The slurry was stirred at 25 degC. The stirred slurry was tested at regular intervals (i.e. 1, 3, 6 and 8 days) until the concentration of the salt in solution was substantially constant. HPLC was used to determine the salt concentration in solution.

## COCC1C2CCC(CC1c1ccc(Cl)c(Cl)c1)N2 [salt of the invention, hydrochloride salt of (1R,2R,3S,5S)-3-(3,4-dichlorophenyl)-2-[(methyloxy)methyl]-8-azabicyclo[3.2.1]octane]
  solubility at 8 days: 438 mg/mL
